Our source for the EC50 values is patent US10329289B2, “6,7-dihydro-5H-pyrrolo[3,4-B]pyridin-5-one allosteric modulators of the M4 muscarinic acetylcholine receptor” (Merck Sharp & Dohme Corp., priority 2015, dated 2019).

For this experiment, the target named is T1, human M4 muscarinic acetylcholine receptor (Homo sapiens, UniProt P08173).
T1 construct: expressed in transfected cells; host or cells: CHO-K1
T1 sequence (P08173 1-479): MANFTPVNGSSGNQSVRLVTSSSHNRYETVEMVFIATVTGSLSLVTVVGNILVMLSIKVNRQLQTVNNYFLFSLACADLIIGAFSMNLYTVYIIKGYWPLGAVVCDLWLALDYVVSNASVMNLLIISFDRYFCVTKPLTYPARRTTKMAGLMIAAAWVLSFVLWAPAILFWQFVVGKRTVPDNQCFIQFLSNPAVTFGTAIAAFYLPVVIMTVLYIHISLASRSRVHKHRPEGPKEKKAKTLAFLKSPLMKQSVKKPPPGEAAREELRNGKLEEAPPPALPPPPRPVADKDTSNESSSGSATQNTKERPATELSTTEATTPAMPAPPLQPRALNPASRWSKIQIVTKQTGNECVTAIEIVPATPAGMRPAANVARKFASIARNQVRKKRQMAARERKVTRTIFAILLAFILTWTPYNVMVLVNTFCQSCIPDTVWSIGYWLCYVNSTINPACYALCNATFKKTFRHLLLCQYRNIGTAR
Description: human FLIPR-based M4 PAM assay (Ca2+ mobilization, CHO-K1 cells with human M4 receptor and Gαqi5). The format is cell-based. The conditions noted are these: acetylcholine at 20% of maximum response, read-out: M4 PAM IP. The procedure, abridged: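 Calcium-mobilization (FLIPR) readout in dye-loaded CHO-K1 cells co-expressing human M4 receptor and Gαqi5. Potentiation measured against acetylcholine at a concentration giving 20% of maximal response, with an optional 70% addition; the reported value is the curve inflection point from a 4-parameter logistic fit.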
As to `COc1ccc(OC2CCN(c3nc4c(cc3C)C(=O)N(C[C@H](O)C(F)(F)F)C4)CC2)cn1` [Example 319, (S)-2-(4-((6-methoxypyridin-3-yl)oxy)piperidin-1-yl)-3-methyl-6-(3,3,3-trifluoro-2-hydroxypropyl)-6,7-dihydro-5H-pyrrolo[3,4-b] pyridin-5-one], the EC50 was determined as 96 nM.
The figure for `Cc1cc2c(nc1N1CCC(Oc3ccc4c(c3)CNCC4)CC1)CNC2=O` [Example 146, 3-methyl-2-(4-((1,2,3,4-tetrahydroisoquinolin-7-yl)oxy)piperidin-1-yl)-6,7-dihydro-5H-pyrrolo[3,4-b]pyridin-5-one] is 286 nM; for `Cc1cc2c(nc1N1CCC(OC[C@]3(C)CC3(F)F)CC1)CNC2=O` [Example 8B, (S)-2-(4-((2,2-difluoro-1-methylcyclopropyl)methoxy)piperidin-1-yl)-3-methyl-6,7-dihydro-5H-pyrrolo[3,4-b]pyridin-5-one] it is 501 nM; for `Cc1cc2c(nc1N1CC[C@@H](Oc3ccc4c(cnn4C)c3)[C@@H](F)C1)[C@H](CO)N(C)C2=O` [Example 284, (R)-2-((3S,4R)-3-fluoro-4-((1-methyl-1H-indazol-5-yl)oxy)piperidin-1-yl)-7-(hydroxymethyl)-3,6-dimethyl-6,7-dihydro-5H-pyrrolo[3,4-b]pyridin-5-one] it is 4330 nM.
The figure for `Cc1cc2c(nc1N1CCC(OC[C@]3(C)C[C@@H]3F)CC1)CNC2=O` (single isomer, unassigned) [Example 160A] is 627 nM; for `Cc1cc2c(nc1N1[C@@H]3CC[C@H]1C[C@@H](Oc1cccc(C#N)c1)C3)CNC2=O` [Example 95, 3-((endo-8-(3-methyl-5-oxo-6,7-dihydro-5H-pyrrolo[3,4-b]pyridin-2-yl)-8-azabicyclo[3.2.1]octan-3-yl)oxy)benzonitrile] it is 616 nM; for `CCc1cc2c(nc1N1CCC(Oc3cnc4c(c3)COC4)CC1)CNC2=O` [Example 212A, 2-(4-((5,7-dihydrofuro[3,4-b]pyridin-3-yl)oxy)piperidin-1-yl)-3-ethyl-6,7-dihydro-5H-pyrrolo[3,4-b]pyridin-5-one] it is 116 nM.
The same measure for `Cc1cc2c(nc1N1CCC(Oc3ccc4c(c3)COCC4)CC1)[C@H](CO)N(C)C2=O` [Example 350, (R)-7-(hydroxymethyl)-2-(4-(isochroman-7-yloxy)piperidin-1-yl)-3,6-dimethyl-6,7-dihydro-5H-pyrrolo[3,4-b]pyridin-5-one]: 980 nM; for `Cc1cc2c(nc1N1CCC(Oc3ccc4c(c3)OC(F)(F)O4)CC1)CNC2=O` [Example 208, 2-(4-((2,2-difluorobenzo[d][1,3]dioxol-5-yl)oxy)piperidin-1-yl)-3-methyl-6,7-dihydro-5H-pyrrolo[3,4-b]pyridin-5-one]: 329 nM; for `Cc1cc2c(nc1N1CC[C@@H](Oc3ccc4c(c3)C(=O)N(C)C4)[C@@H](F)C1)CNC2=O` [Example 163, 2-((3S,4R)-3-fluoro-4-((2-methyl-3-oxoisoindolin-5-yl)oxy)piperidin-1-yl)-3-methyl-6,7-dihydro-5H-pyrrolo[3,4-b]pyridin-5-one]: 277 nM.
For `Cc1cc2c(nc1N1CCC(Oc3ccc4nn(C)cc4c3)CC1)CNC2=O` [Example 202A, 3-methyl-2-(4-((2-methyl-2H-indazol-5-yl)oxy)piperidin-1-yl)-6,7-dihydro-5H-pyrrolo[3,4-b]pyridin-5-one], the EC50 is 96 nM.
As to `COc1cncc(OC2CCN(c3nc4c(cc3C)C(=O)NC4)CC2)c1` [Example 101, 2-(4-((5-methoxypyridin-3-yl)oxy)piperidin-1-yl)-3-methyl-6,7-dihydro-5H-pyrrolo[3,4-b]pyridin-5-one], the EC50 amounted to 869 nM.
The figure for `Cc1cc2c(nc1N1CCC(Oc3ccc(O)nc3)CC1)CNC2=O` [Example 326, 2-(4-((6-Hydroxypyridin-3-yl)ox)piperidin-1-yl)-3-methyl-6,7-dihydro-5H-pyrrolo[3,4-b]pyridin-5-one] is 1660 nM.
